In US11976083B2, “Inhibitors of peptidylarginine deiminases” (Gilead Sciences, Inc., priority 2020, dated 2024):

Biological target: T1, human PAD4 (Homo sapiens, UniProt Q9UM07)
T1 construct: human PAD4 (NM_012387), A2-P663, was PCR amplified; His-SUMO (N, cleaved yes); made in house; host or cells: E. coli BL21(DE3)
Test: In vitro PAD4 BAEE biochemical assay
Details: BAEE substrate 3 mM, 5 nM PAD4, 2 mM calcium chloride; geometric mean of multiple experiments
Method in brief: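 Recombinant PAD4 (5 nM final) with 2 mM CaCl2 was preincubated with compound for 30 min at 25 °C in MOPS pH 7.6 buffer with DTT, then reacted with 3 mM BAEE for 2 h at 25 °C. Released ammonia was detected fluorimetrically with o-phthalaldehyde/DTT; IC50 from four-parameter fit, geometric mean of experiments.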

T1 sequence (Q9UM07 2-663): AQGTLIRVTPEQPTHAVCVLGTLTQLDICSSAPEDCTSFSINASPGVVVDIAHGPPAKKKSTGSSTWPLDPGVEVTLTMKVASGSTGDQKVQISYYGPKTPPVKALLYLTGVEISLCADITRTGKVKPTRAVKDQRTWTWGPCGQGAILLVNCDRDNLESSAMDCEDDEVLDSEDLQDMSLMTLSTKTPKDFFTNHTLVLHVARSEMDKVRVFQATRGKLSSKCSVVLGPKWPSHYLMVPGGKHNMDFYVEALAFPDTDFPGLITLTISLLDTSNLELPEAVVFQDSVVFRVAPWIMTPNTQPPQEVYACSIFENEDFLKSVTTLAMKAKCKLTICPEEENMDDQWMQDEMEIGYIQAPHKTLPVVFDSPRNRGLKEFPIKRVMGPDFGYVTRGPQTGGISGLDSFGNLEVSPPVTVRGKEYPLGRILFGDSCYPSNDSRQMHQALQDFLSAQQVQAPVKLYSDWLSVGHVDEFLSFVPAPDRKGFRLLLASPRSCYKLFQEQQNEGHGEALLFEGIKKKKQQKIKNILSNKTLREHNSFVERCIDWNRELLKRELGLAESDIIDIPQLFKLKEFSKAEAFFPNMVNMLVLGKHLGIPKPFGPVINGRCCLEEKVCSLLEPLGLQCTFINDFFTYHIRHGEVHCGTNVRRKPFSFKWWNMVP

IC50 | SMILES
38 nM | C[C@H]1NC(=O)c2c(ncc3ccccc23)CCCCCn2c(-c3nc4cc(C(=O)N5C[C@H](N)[C@@H]6CC[C@H]5C6)cc(F)c4n3C3CC3)cc3ccc1nc32 [Example 457, (2~{R})-21-[5-[(1~{S),4~{R},5~{R})-4-amino-2-azabicyclo[3.2.1]octane-2-carbonyl]-1-cyclopropyl-7-fluoro-benzimidazol-2-yl]-2-methyl-3,13,20,26-tetrazapentacyclo[18.5.2.0^{5,14}.0^ {6,11}.0^{23,27}]heptacosa-1(26),5(14),6(11),7,9,12,21,23(27),24-nonaen-4-one]
140 nM | COc1cc(C(=O)N2CC[C@@H](OC)[C@@H](N)C2)cc2nc(-c3cc4ccc5nc4n3CCCCCc3cc4ccccc4nc3C(=O)N[C@@H]5C)n(C)c12 [Example 731, (2~{R})-21-[5-[(3~{S},4~{R})-3-amino-4-methoxy-piperidine-1-carbonyl]-7-methoxy-1-methyl-benzimidazol-2-yl]-2-methyl-3,6,20,26-tetrazapentacyclo[18.5.2.0^ {5,14}.0^{7,12}.0^{23,27}] heptacosa-1(26),5(14), 6,8,10,12,21,23(27),24-nonaen-4-one]
137 nM | COc1cc(C(=O)N2CCC[C@@H](N)C2)cc2nc(-c3cc4ccc5nc4n3C[C@@H]3C[C@H]3CO[C@H](C)CC(=O)N[C@@H]5C)n(C)c12 [Example 268, (5~{R},8~{R},12~{R})-18-[5-[(3~{R})-3-aminopiperidine-1-carbonyl]-7-methoxy-1-methyl-benzimidazol-2-yl]-8,12-dimethyl-7-oxa-1,11,20-triazatetracyclo[11.5.2.0^{3,5}.0^{16,19}] icosa-13(20),14,16(19),17-tetraen-10-one]
78 nM | CO[C@@H]1CCN(C(=O)c2cc(F)c3c(c2)nc(-c2cc4ccc5nc4n2CCCCCc2nccnc2C(=O)N[C@@H]5C)n3C2CC2)C[C@@H]1N [Example 578, (2~{R})-17-[5-[(3~{S},4~ {R})-3-amino-4-methoxy-piperidine-1-carbonyl]-1-cyclopropyl-7-fluoro-benzimidazol-2-yl]-2-methyl-3,6,9,16,22-pentazatetracyclo[14.5.2.0^ {5,10}.0^{19,23}] tricosa-1(22),5(10),6,8,17, 19(23),20-heptaen-4-one]
51 nM | COc1cc(C(=O)N[C@H]2CNCC[C@@H]2F)cc2nc(-c3cc4ccc5nc4n3CCCCCc3cnccc3C(=O)N[C@@H]5C)n(C)c12 [Example 344, ~{N}-[(3~{S},4~{S})-4-fluoro-3-piperidyl]-7-methoxy-1-methyl-2-[(2~{R})-2-methyl-4-oxo-3,8,16,22-tetrazatetracyclo[14.5.2.0^{5,10}.0^{19,23}]tricosa-1(22),5,7,9,17,19(23),20-heptaen-17-yl]benzimidazole-5-carboxamide]
39 nM | COc1cc(C(=O)N2C[C@H](N)[C@H](OC)[C@@H](F)C2)cc2nc(-c3cc4ccc5nc4n3CC(F)(F)CCC[C@@H]3C[C@H]3C(=O)N[C@@H]5C)n(C)c12 [Example 681, (2~{R},5~{R},7~{R})-14-[5-[(3~{S},4~{S}, 5~{S})-3-amino-5-fluoro-4-methoxy-piperidine-1-carbonyl]-7-methoxy-1-methyl-benzimidazol-2-yl]-11,11-difluoro-2-methyl-3,13,19-triazatetracyclo [11.5.2.0^{5,7}.0^{16,20}] icosa-1(19),14,16(20), 17-tetraen-4-one]

Further lines, the compound ahead of its results:

SMILES | IC50
COc1cc(C(=O)N[C@H]2CNCC(F)(F)C2)cc2nc(-c3cc4ccc5nc4n3CCCCCCC(C)(C)C(=O)N[C@@H]5C)n(C)c12 [Example 63, ~{N}-[(3~{R})-5,5-difluoro-3-piperidyl]-7-methoxy-1-methyl-2-[(11~{R})-8,8,11-trimethyl-9-oxo-1,10,19-triazatricyclo[10.5.2.0^{15,18}]nonadeca-12(19),13,15(18),16-tetraen-17-yl]benzimidazole-5-carboxamide] | 25000 nM
COc1cc(C(=O)N2[C@H]3CC[C@@H]2[C@H](N)C3)cc2nc(-c3cc4ccc5nc4n3C[C@H]3C[C@H]3COCCC(=O)N[C@@H]5C)n(C)c12 [Example 336, (3~{S),5~{R},12~{R})-18-[5-[(1~{R},2~{R},4~{S})-2-amino-7-azabicyclo[2.2.1]heptane-7-carbonyl]-7-methoxy-1-methyl-benzimidazol-2-yl]-12-methyl-7-oxa-1,11,20-triazatetracyclo[11.5.2.0^{3,5}.0^{16,19}] icosa-13(20),14,16(19),17-tetraen-10-one] | 34 nM
COc1cc(C(=O)N(C)[C@H]2CNCC[C@@H]2F)cc2nc(-c3cc4ccc5nc4n3CCCCCCC(C)(C)C(=O)N[C@@H]5C)n(C)c12 [Example 514, ~{N}-[(3~{S},4~{S})-4-fluoro-3-piperidyl]-7-methoxy-~{N},1-dimethyl-2-[(11~{R})-8,8,11-trimethyl-9-oxo-1,10,19-triazatricyclo[10.5.2.0^ {15,18}]nonadeca-12(19),13,15(18),16-tetraen-17-yl]benzimidazole-5-carboxamide] | 371 nM
COc1cc(C(=O)N2CCC[C@@H](N)C2)cc2nc(-c3cc4ccc5cc4n3CCCOC[C@H]3C[C@H]3C(=O)N[C@@H]5C)n(C)c12 [Example 307, (2~{R},5~{R},7~{S})-14-[5-[(3~{R})-3-aminopiperidine-1-carbonyl]-7-methoxy-1-methyl-benzimidazol-2-yl]-2-methyl-9-oxa-3,13-diazatetracyclo[11.5.2.0^{5,7}.0^{16,20}] icosa-1(19),14,16(20),17-tetraen-4-one] | 82 nM
COc1cc(C(=O)N2CC[C@H]3OCCN[C@H]3C2)cc2nc(-c3cc4ccc5nc4n3C[C@H]3C[C@H]3COCCC(=O)N[C@@H]5C)n(C)c12 (single isomer, unassigned) [Example 245, (3˜{S},5˜{R},12˜{R})-18-[5-[(4˜{a}˜{S},8˜{a}˜{R})-2,3,4,4˜{a},5,7,8,8˜{a}-octahydropyrido[4,3-b][1,4]oxazine-6-carbonyl]-7-methoxy-1-methyl-benzimidazol-2-yl]-12-methyl-7-oxa-1,11,20-triazatetracyclo[11.5.2.0^{3,5}.0^{16,19}]icosa-13(20),14,16(19),17-tetraen-10-one] | 411 nM
C[C@H]1NC(=O)c2ccc(Cl)nc2CCCCCn2c(-c3nc4cc(C(=O)N5C[C@H](N)[C@@H]6CC[C@H]5C6)cc(F)c4n3[C@@H]3C[C@H]3F)cc3ccc1nc32 [Example 473, (2~{R})-17-[5-[(1~{S},4~{R},5~{R})-4-amino-2-azabicyclo[3.2.1]octane-2-carbonyl]-7-fluoro-1-[(1~{R},2~{R})-2-fluorocyclopropyl]benzimidazol-2-yl]-8-chloro-2-methyl-3,9,16,22-tetrazatetracyclo[14.5.2.0^{5,10}.0^{19,23}] tricosa-1(22),5(10),6,8,17,19(23),20-heptaen-4-one] | 44 nM
COc1cc(C(=O)N2[C@H]3CC[C@@H]2[C@H](N)C3)cc2nc(-c3cc4ccc5nc4n3C[C@H]3C[C@@H]3CCCCC(=O)N[C@@H]5C)n(C)c12 [Example 226, (3~{S},5~{S},12~{R})-18-[5-[(1~{R},2~{R},4~{S})-2-amino-7-azabicyclo[2.2.1]heptane-7-carbonyl]-7-methoxy-1-methyl-benzimidazol-2-yl]-12-methyl-1,11,20-triazatetracyclo[11.5.2.0^{3,5}.0^{16,19}] icosa-13(20),14,16(19),17-tetraen-10-one] | 24 nM
C[C@H]1NC(=O)[C@@H]2C[C@H]2CCCCCn2c(-c3nc4cc(C(=O)N[C@@H]5CCCNC5)c(F)cc4n3C3CC3)cc3ccc1nc32 [Example 568, 1-cyclopropyl-6-fluoro-2-[(2~{R},5~{R},7~{R})-2-methyl-4-oxo-3,13,19-triazatetracyclo[11.5.2.0^ {5,7}.0^{16,20}]icosa-1(19), 14,16(20),17-tetraen-14-yl]- ~{N}-[(3~{R})-3-piperidyl]benzimidazole-5-carboxamide11,11-difluoro-2-methyl-4-oxo-3,13,19-] | 33 nM
Cc1cc2c(cc1C(=O)N1[C@H]3CC[C@@H]1[C@H](N)C3)nc(-c1cc3ccc4nc3n1CCCCCCC(C)(C)C(=O)N[C@@H]4C)n2C [Example 556, (11~{R})-17-[5-[(1~{R}, 2~{R},4~{S})-2-amino-7-azabicyclo[2.2.1]heptane-7-carbonyl]-1,6-dimethyl-benzimidazol-2-yl]-8,8,11-trimethyl-1,10,19-triazatricyclo[10.5.2.0^ {15,18}]nonadeca-12(19),13,15(18),16-tetraen-9-one] | 69 nM
COc1cc(C(=O)N2[C@H]3CC[C@@H]2[C@H](N)C3)cc2nc(-c3cc4ccc5nc4n3C/C=C\CCCCCC(=O)N[C@@H]5C)c(C)n12 [Example 120, (12˜{R})-18-[7-[(1˜{R},2˜{R},4˜{S})-2-amino-7-azabicyclo[2.2.1]heptane-7-carbonyl]-5-methoxy-3-methyl-imidazo[1,2-a]pyridin-2-yl]-12-methyl-1,11,20-triazatricyclo[11.5.2.0^{16,19}]icosa-3,13(20),14,16(19),17-pentaen-10-one] | 22 nM
C[C@H]1NC(=O)[C@@H]2C[C@H]2CCCCCn2c(-c3nc4cc(C(=O)N5C[C@H](N)[C@@H]6CC[C@H]5C6)cc(F)c4n3C3CC3)cc3ccc1nc32 [Example 882, (2~{R},5~{R},7~{R})-14-[5-[(1~{S),4~{R},5~{R})-4-amino-2-azabicyclo [3.2.1]octane-2-carbonyl]-1-cyclopropyl-7-fluoro-benzimidazol-2-yl]-2-methyl-3,13,19-triazatetracyclo[11.5.2.0^ {5,7}.0^{16,20}]icosa-1(19),14,16(20),17-tetraen-4-one] | 22 nM
